We go through 10 compounds from ChEMBL document CHEMBL1221228, “Norselic acids A-E, highly oxidized anti-infective steroids that deter mesograzer predation, from the Antarctic sponge Crella sp” (2009).

Molecules are shown by their SMILES.

Type in all cases: functional
Test [1] has as its system Leishmania. Put plainly: Antileishmanial activity against Leishmania.
Test [2] deals with Enterococcus faecium. Put plainly: Antimicrobial activity against vancomycin-resistant Enterococcus faecium 379 at 30 ug after 18 hrs by agar diffusion method. The note with it: Enterococcus faecium, 379, 18 h; read-out: IZ.
The test system of test [3] is Staphylococcus aureus. Put plainly: Antimicrobial activity against methicillin sensitive Staphylococcus aureus 375 at 30 ug after 18 hrs by agar diffusion method. The note with it: Staphylococcus aureus, 375, 18 h; read-out: IZ.
Test [4] concerns Staphylococcus aureus. Put plainly: Antimicrobial activity against methicillin sensitive Staphylococcus aureus 310 at 30 ug after 18 hrs by agar diffusion method. The note with it: Staphylococcus aureus, 310, 18 h; read-out: IZ.
The subject of test [5] is Escherichia coli. The test is described as follows: Antimicrobial activity against Escherichia coli 389 assessed as hazy zone of inhibition at 30 ug after 18 hrs by agar diffusion method. The note with it: Escherichia coli, 389, 18 h; read-out: IZ.
Test [6] relates to Escherichia coli. The test is described as follows: Antimicrobial activity against Escherichia coli 389 at 30 ug after 18 hrs by agar diffusion method. Particulars: Escherichia coli, 389, 18 h; read-out: IZ.
For test [7], the system named is Candida albicans. The test is described as follows: Antimicrobial activity against Candida albicans 54 at 30 ug after 18 hrs by agar diffusion method. The note with it: Candida albicans, 54, 18 h; read-out: IZ.
Test [8] concerns Escherichia coli. The test is described as follows: Antimicrobial activity against Escherichia coli 389 at 5 ug after 18 hrs by agar diffusion method. The note with it: Escherichia coli, 389, 18 h; read-out: IZ.
The test system of test [9] is Escherichia coli. The test is described as follows: Antimicrobial activity against Escherichia coli 442 at 5 ug after 18 hrs by agar diffusion method. The note with it: Escherichia coli, 442, 18 h; read-out: IZ.
In test [10] the test system is Candida albicans. Put plainly: Antimicrobial activity against Candida albicans 54 at 5 ug after 18 hrs by agar diffusion method. Particulars: Candida albicans, 54, 18 h; read-out: IZ.
Test [11] concerns Escherichia coli. Put plainly: Antimicrobial activity against Escherichia coli 442 at 30 ug after 18 hrs by agar diffusion method. The note with it: Escherichia coli, 442, 18 h; read-out: IZ.
For test [12], the system named is Escherichia coli. The test is described as follows: Antimicrobial activity against Escherichia coli 442 assessed as hazy zone of inhibition at 30 ug after 18 hrs by agar diffusion method. The note with it: Escherichia coli, 442, 18 h; read-out: IZ.
Test [13] relates to Staphylococcus aureus. Put plainly: Antimicrobial activity against methicillin sensitive Staphylococcus aureus 375 at 1 unit after 18 hrs by agar diffusion method.
Test [14] has as its system Staphylococcus aureus. Put plainly: Antimicrobial activity against methicillin sensitive Staphylococcus aureus 375 assessed as hazy zone of inhibition at 1 unit after 18 hrs by agar diffusion method.
The test system of test [15] is Escherichia coli. The test is described as follows: Antimicrobial activity against Escherichia coli 442 at 1 unit after 18 hrs by agar diffusion method.
For test [16], the system named is Enterococcus faecium. Put plainly: Antimicrobial activity against vancomycin-resistant Enterococcus faecium 379 at 1 unit after 18 hrs by agar diffusion method.
For test [17], the system named is Staphylococcus aureus. The test is described as follows: Antimicrobial activity against methicillin sensitive Staphylococcus aureus 310 at 1 unit after 18 hrs by agar diffusion method.
In test [18] the test system is Candida albicans. Put plainly: Antimicrobial activity against Candida albicans 54 at 1 unit after 18 hrs by agar diffusion method.
The subject of test [19] is Staphylococcus aureus. The test is described as follows: Antimicrobial activity against methicillin sensitive Staphylococcus aureus 375 assessed as very hazy zone of inhibition at 200 ug after 18 hrs by agar diffusion method. The note with it: Staphylococcus aureus, 375, 18 h; read-out: IZ.
Test [20] concerns Candida albicans. Put plainly: Antimicrobial activity against Candida albicans 54 at 200 ug after 18 hrs by agar diffusion method. The note with it: Candida albicans, 54, 18 h; read-out: IZ.
The subject of test [21] is Odontaster validus. Put plainly: Reduction of food intake in Odontaster validus assessed as rejection of food pellets after 72 hrs relative to control. Also on record: scale not given: the % may be the effect or the level left.
The subject of test [22] is Enterococcus faecium. The test is described as follows: Antimicrobial activity against vancomycin-resistant Enterococcus faecium 379 assessed as hazy zone of inhibition at 200 ug after 18 hrs by agar diffusion method. The note with it: Enterococcus faecium, 379, 18 h; read-out: IZ.
The subject of test [23] is Escherichia coli. Put plainly: Antimicrobial activity against Escherichia coli 442 at 200 ug after 18 hrs by agar diffusion method. Particulars: Escherichia coli, 442, 18 h; read-out: IZ.
In test [24] the test system is Escherichia coli. Put plainly: Antimicrobial activity against Escherichia coli 389 at 200 ug after 18 hrs by agar diffusion method. Particulars: Escherichia coli, 389, 18 h; read-out: IZ.
The test system of test [25] is Staphylococcus aureus. The test is described as follows: Antimicrobial activity against methicillin-resistant Staphylococcus aureus 310 assessed as hazy zone of inhibition at 200 ug after 18 hrs by agar diffusion method. Particulars: Staphylococcus aureus, 310, 18 h; read-out: IZ.

For `C=C(C)[C@@](O)(CC)CC[C@@H](C)[C@H]1CC[C@H]2[C@@H]3CC[C@H]4CC(=O)C=C[C@]4(C)[C@H]3CC[C@]12C(=O)O` [NORSELIC ACID B], the Activity in [1] turned out to be 2.4 µM.

As to `CN[C@H](CC(C)C)C(=O)N[C@H]1C(=O)N[C@@H](CC(N)=O)C(=O)N[C@H]2C(=O)N[C@H]3C(=O)N[C@H](C(=O)N[C@H](C(=O)O)c4cc(O)cc(O)c4-c4cc3ccc4O)[C@H](O)c3ccc(c(Cl)c3)Oc3cc2cc(c3O[C@@H]2O[C@H](CO)[C@@H](O)[C@H](O)[C@H]2O[C@H]2C[C@](C)(N)[C@H](O)[C@H](C)O2)Oc2ccc(cc2Cl)[C@H]1O` [VANCOMYCIN], the zone of inhibition at 30 µg/disc in [2] turned out to be 0 mm; in test [3] it was 19 mm; in [4], 15 mm; in test [5], 25 mm; in test [6], 17 mm; in [7] it was 0 mm.

In [1], `C=C(C)[C@@](O)(CC)CC[C@@H](C)[C@H]1CC[C@H]2[C@@H]3CCC4=CC(=O)CC[C@]4(C)[C@H]3CC[C@]12C(=O)O` [NORSELIC ACID D] displayed an Activity of 2 µM.

Consider `NC[C@H]1O[C@H](O[C@H]2[C@H](O)[C@@H](O[C@H]3O[C@H](CO)[C@@H](O)[C@H](N)[C@H]3O)[C@H](N)C[C@@H]2N)[C@H](O)[C@@H](O)[C@@H]1O` [KANAMYCIN], for which the zone of inhibition at 30 µg/disc in test [2] came to 10 mm; in test [3] it was 15 mm; in [4] it was 0 mm; in test [5], 37 mm; in test [6], 21 mm; in test [7] it was 0 mm.

Take `C=C(CC[C@@H](C)[C@H]1CC[C@H]2[C@@H]3CCC4=CC(=O)C=C[C@]4(C)[C@H]3CC[C@]12C(=O)O)C(C)C` [NORSELIC ACI C]: the Activity in [1] was determined as 2.6 µM.

In the case of `C=C(C)[C@@](CC)(CC[C@@H](C)[C@H]1CC[C@H]2[C@@H]3C=CC4=CC(=O)C=C[C@]4(C)[C@H]3CC[C@]12C(=O)O)OC(C)=O` [NORSELIC ACID E], the Activity in test [1] was 3.6 µM.

As for `CO[C@H]1/C=C/O[C@@]2(C)Oc3c(C)c(O)c4c(O)c(c(/C=N/N5CCN(C)CC5)c(O)c4c3C2=O)NC(=O)/C(C)=C\C=C\[C@H](C)[C@H](O)[C@@H](C)[C@@H](O)[C@@H](C)[C@H](OC(C)=O)[C@@H]1C` [RIFAMPIN], the zone of inhibition at 5 µg/disc in test [8] is 20 mm; in test [9], 6 mm; in test [10], 0 mm.

Regarding `CO[C@@]1(NC(=O)Cc2cccs2)C(=O)N2C(C(=O)O)=C(COC(N)=O)CS[C@@H]21` [CEFOXITIN], the zone of inhibition at 30 µg/disc is 18 mm in [11]; 26 mm in test [5]; 22 mm in test [6]; 26 mm in test [12]; 0 mm in test [7].

As for `Cc1onc(-c2ccccc2)c1C(=O)N[C@@H]1C(=O)N2[C@@H]1SC(C)(C)[C@@H]2C(=O)O` [OXACILLIN], the “inhibition zone (IZ)” value was 18 mm in test [13]; 22 mm in test [14]; 0 mm in test [15]; 0 mm in [16]; 0 mm in [17]; 0 mm in test [18]. For the same compound, the zone of inhibition at 30 µg/disc in [5] amounted to 8 mm.

As to `C=C(C)[C@@](O)(CC)CC[C@@H](C)[C@H]1CC[C@H]2[C@@H]3C=CC4=CC(=O)C=C[C@]4(C)[C@H]3CC[C@]12C(=O)O` [NORSELIC ACID A], the zone of inhibition at 200 µg/disc in test [19] was found to be 8 mm; in test [20], 8 mm; in test [22], 8 mm; in test [23] it was 0 mm; in test [24], 0 mm; in [25], 9 mm. Besides, the values for the Activity in [21] and in test [1] were 35% and 2.5 µM, respectively.
